Measurements published in the NIST ThermoML archive (doi:10.1021/je0501890).

Test: xn = mol fraction of the nth substance listed
Settings: 101.33 kPa, Liquid

ClC=C(Cl)Cl [trichloroethene] + CCCCCCCO
Settings	mass density, 293.15 K [kg/m3]	mass density, 298.15 K [kg/m3]	mass density, 303.15 K [kg/m3]	viscosity, 293.15 K [mPa·s]	viscosity, 298.15 K [mPa·s]	viscosity, 303.15 K [mPa·s]
x2 = 0.0507	1412.78	1404.82	1396.73	–	–	–
x2 = 0.0927	–	–	–	0.671	0.635	0.6
x2 = 0.0992	1367.53	1359.9	1352.18	–	–	–
x2 = 0.1569	1317.05	1309.82	1302.52	–	–	–
x2 = 0.201	–	–	–	0.883	0.826	0.763
x2 = 0.2026	1279.18	1272.23	1265.25	–	–	–
x2 = 0.2558	1237.46	1230.87	1224.15	–	–	–
x2 = 0.256	–	–	–	1.017	0.949	0.875
x2 = 0.304	–	–	–	1.158	1.073	0.989
x2 = 0.3109	1196.47	1190.18	1183.85	–	–	–
x2 = 0.3618	1160.63	1154.67	1148.63	–	–	–
x2 = 0.3997	1134.97	1129.21	1123.37	–	–	–
x2 = 0.4057	–	–	–	1.535	1.397	1.28
x2 = 0.43	1115.18	1109.55	1103.85	–	–	–
x2 = 0.5098	–	–	–	2.05	1.838	1.662
x2 = 0.51	1065.33	1060.09	1054.79	–	–	–
x2 = 0.5508	–	–	–	2.307	2.046	1.839
x2 = 0.5514	1040.91	1035.82	1030.7	–	–	–
x2 = 0.6022	–	–	–	2.648	2.342	2.082
x2 = 0.6149	1005.06	1000.28	995.43	–	–	–
x2 = 0.6574	982.15	977.54	972.87	–	–	–
x2 = 0.7071	956.39	951.95	947.47	–	–	–
x2 = 0.7077	–	–	–	3.52	3.065	2.672
x2 = 0.7571	931.38	927.1	922.8	–	–	–
x2 = 0.8016	909.97	905.84	901.69	–	–	–
x2 = 0.802	–	–	–	4.51	3.865	3.333
x2 = 0.8699	–	–	–	5.313	4.537	3.89
x2 = 0.8728	877.14	873.27	869.35	–	–	–
x2 = 0.893	–	–	–	5.624	4.804	4.112
x2 = 0.9405	847.47	843.79	840.09	–	–	–
